We go through 48 molecules from US9238039B2, “Pyrazolo[1,5-A]pyrimidines for antiviral treatment” (Gilead Sciences, Inc., priority 2010, dated 2016).

In the assay the test system is RSV strain A2. Put plainly: RSV antiviral cytoprotection assay in Hep2 cells (96-well and 384-well format, Cell TiterGlo read-out). The format is cell-based, Respiratory Syncytial Virus (RSV). The settings on record: human respiratory syncytial virus; for inhibition at 0.5 µM: HEp-2, 0.5 uM; for inhibition at 0.5 µM / inhibition at 1 µM: RSV-induced cytopathic effect in Hep2 cells, calculated from fitted dose response curve, normalized to 0% and 100%; for EC50: HEp-2, RSV-induced cytopathic effects, Hep2 cells, class symbols; for inhibition at 1 µM: HEp-2, 1 uM.

What is called inhibition is the relative decrease from the control value, in per cent. As a reminder, the EC50 is the concentration that produces a half-maximal response. Turning to `Cc1cn2nc([C@@H]3CCCCN3C(=O)c3cccc(-c4cccnc4)c3)cc2nc1N1CC[C@H](N)C1` [Compound 411], the inhibition at 0.5 µM was 95% and the EC50 fell in the range of 101 to 1000 nM.

As to `Cc1cn2nc([C@@H]3CCCCN3C(=O)c3c(Cl)c(C)nn3C)cc2nc1N1CC[C@H](N)C1` [Compound 348], the inhibition at 0.5 µM was 99% and the EC50 lay in the range of 0.1 to 100 nM.

Take `Cc1cn2nc([C@@H]3CCCCN3C(=O)c3cc(Cl)ccc3NC(=O)C3CC3)cc2nc1N1CC[C@H](N)C1` [Compound 219]: the inhibition at 0.5 µM was 100% and the EC50 lay within 0.1 to 100 nM.

For `Cc1cn2nc([C@@H]3CCCCN3C(=O)c3cc(C)n(C(F)F)n3)cc2nc1N1CC[C@H](N)C1` [Compound 355], the inhibition at 0.5 µM was 96% and the EC50 is 0.1 to 100 nM.

On to `Cc1[nH]c2cc([C@@H]3CCCCN3C(=O)c3ccccc3NC(=O)OC(C)(C)C)nn2c(=O)c1C` [Compound 2], for which the inhibition at 0.5 µM was 36%, the inhibition at 1 µM was 46% and the concentration for a half-maximal effect (EC50) was 101 to 1000 nM.

On to `Cc1cn2nc([C@@H]3CCCCN3C(=O)c3cn4ccsc4n3)cc2nc1N1CC[C@H](N)C1` [Compound 327], for which the inhibition at 0.5 µM is 100% and the EC50 lay within 0.1 to 100 nM.

As to `CS(=O)(=O)Nc1ccc(Cl)cc1C(=O)N1CCCC[C@H]1c1cc2nc(N3CC(O)C3)cc(N3CCNCC3)n2n1` [Compound 50], the inhibition at 0.5 µM is 100% and the EC50 fell in the range of 0.1 to 100 nM.

With `Cc1cn2nc([C@@H]3CCCCN3C(=O)c3cc(-c4cccs4)n[nH]3)cc2nc1N1CC[C@H](N)C1` [Compound 404], the inhibition at 0.5 µM was 100% and the concentration for a half-maximal effect (EC50) is 0.1 to 100 nM.

Turning to `CS(=O)(=O)Nc1ccc(Cl)cc1C(=O)N1CCCC[C@H]1c1cc2nc(N3CCC3)cc(CN3CCOCC3)n2n1` [Compound 256], the inhibition at 0.5 µM is 87% and the 50% effective concentration (EC50) is 0.1 to 100 nM.

On to `Cc1ccc(NS(C)(=O)=O)c(C(=O)N2CCCC[C@H]2c2cc3nc(N4CC(N)C4)c(C)cn3n2)c1` [Compound 191], for which the inhibition at 0.5 µM was 100% and the 50% effective concentration (EC50) is 0.1 to 100 nM.

For `Cc1ccc(N2CCCC2=O)c(C(=O)N2CCCC[C@H]2c2cc3nc(C4CC4)cc(C)n3n2)c1` [Compound 112], the inhibition at 0.5 µM was 97% and the EC50 was in the range of 0.1 to 100 nM.

With `Cc1cn2nc([C@@H]3CCCCN3C(=O)c3c(Cl)cnn3C(C)C)cc2nc1N1CC[C@H](N)C1` [Compound 382], the inhibition at 0.5 µM is 99% and the EC50 lay in the range of 0.1 to 100 nM.

Consider `Cc1cn2nc([C@@H]3CCCCN3C(=O)c3cc(Cl)ccc3NS(C)(=O)=O)cc2nc1N1C[C@@H]2[C@@H](N)[C@@H]2C1` [Compound 148], for which the inhibition at 0.5 µM was 100% and the concentration for a half-maximal effect (EC50) lay in the range of 0.1 to 100 nM.

Regarding `CC(=O)Nc1ccc(C)cc1C(=O)N1CCCC[C@H]1c1cc2nc(N3CC(N)C3)c(C)cn2n1` [Compound 222], the inhibition at 0.5 µM was 100% and the 50% effective concentration (EC50) is 0.1 to 100 nM.

For the molecule `Cc1cn2nc([C@@H]3CCCCN3C(=O)c3cc(Cl)ccc3NS(C)(=O)=O)cc2nc1N1CCC[C@H]1CN` [Compound 203], the inhibition at 0.5 µM is 86% and the half-maximal effective concentration (EC50) lay in the range of 101 to 1000 nM.

For `CS(=O)(=O)Nc1ccc(Cl)cc1C(=O)N1CCCC[C@H]1c1cc2nc(N3CC[C@@H](O)C3)ccn2n1` [Compound 51], the inhibition at 0.5 µM is 98% and the 50% effective concentration (EC50) fell in the range of 0.1 to 100 nM.

As to `Cc1cn2nc([C@@H]3CCCCN3C(=O)c3scc4c3OCCO4)cc2nc1N1CC[C@H](N)C1` [Compound 373], the inhibition at 0.5 µM was 99% and the EC50 was in the range of 0.1 to 100 nM.

On to `Cc1cn2nc([C@@H]3CC[C@H](C)CN3C(=O)c3cc(Cl)ccc3NS(C)(=O)=O)cc2nc1N1CC(O)C1` [Compound 135], for which the inhibition at 0.5 µM was 100% and the 50% effective concentration (EC50) fell in the range of 0.1 to 100 nM.

In the case of `CCOc1ccccc1C(=O)N1CCCC[C@H]1c1cc2nc(N3CC[C@H](N)C3)c(C)cn2n1` [Compound 323], the inhibition at 0.5 µM was 100% and the EC50 was 0.1 to 100 nM.

Turning to `COc1ccc(NS(C)(=O)=O)c(C(=O)N2CCCC[C@H]2c2cc3[nH]c(C)c(C)c(=O)n3n2)c1` [Compound 10], the inhibition at 0.5 µM was 94%, the inhibition at 1 µM is 99% and the concentration giving a half-maximal response (EC50) fell in the range of 0.1 to 100 nM.

As to `Cc1cn2nc([C@@H]3CCCCN3C(=O)c3cc(-c4ccccc4)ccn3)cc2nc1N1CC[C@H](N)C1` [Compound 410], the 50% effective concentration (EC50) was in the range of 1000 to 10000 nM.

For the molecule `Cc1cn2nc([C@@H]3CCCCN3C(=O)c3ccccc3-c3ccccc3)cc2nc1N1CC[C@H](N)C1` [Compound 407], the inhibition at 0.5 µM is 92% and the concentration giving a half-maximal response (EC50) is 0.1 to 100 nM.

For `Cc1cn2nc([C@@H]3CCCCN3C(=O)c3cc(C(C)C)nn3C)cc2nc1N1CC[C@H](N)C1` [Compound 328], the inhibition at 0.5 µM was 99% and the EC50 is 0.1 to 100 nM.

Regarding `Cc1cn2nc([C@@H]3CCCCN3C(=O)c3cc(Cl)ccc3NS(C)(=O)=O)cc2nc1N1CC(N)C(F)C1` (some centres unmarked) [Compound 250], the inhibition at 0.5 µM is 90% and the 50% effective concentration (EC50) was 0.1 to 100 nM.

Turning to `CS(=O)(=O)Nc1ccc(Cl)cc1C(=O)N1CCCC[C@H]1c1cc2nc(N3CCC3)cc(N3CCC(O)C3)n2n1` (some centres unmarked) [Compound 57], the inhibition at 0.5 µM was 100% and the EC50 was in the range of 0.1 to 100 nM.

Regarding `Cc1cn2nc([C@@H]3CCCCN3C(=O)c3cccn4c(C)nnc34)cc2nc1N1CC[C@H](N)C1` [Compound 358], the inhibition at 0.5 µM was 100% and the EC50 fell in the range of 0.1 to 100 nM.

Turning to `CC(=O)Nc1ccc(Cl)cc1C(=O)N1CCCC[C@H]1c1cc2nc(N3CC[C@H](N)C3)c(C)cn2n1` [Compound 223], the inhibition at 0.5 µM was 100% and the concentration for a half-maximal effect (EC50) fell in the range of 0.1 to 100 nM.

As for `Cc1cn2nc([C@@H]3CCCCN3C(=O)c3cc(Br)ccc3NS(C)(=O)=O)cc2nc1N1CC(O)C1` [Compound 168], the inhibition at 0.5 µM was 100% and the EC50 lay in the range of 0.1 to 100 nM.

As to `Cc1cn2nc([C@@H]3CCCCN3C(=O)c3cc(Cl)ccc3NS(C)(=O)=O)cc2nc1N1CC(C)(O)C1` [Compound 96], the inhibition at 0.5 µM was 97% and the EC50 was in the range of 0.1 to 100 nM.

As to `Cc1cn2nc([C@@H]3CCCCN3C(=O)c3cc(Cl)ccc3NS(C)(=O)=O)cc2nc1N1CCC(Oc2ccccc2)C1` (some centres unmarked) [Compound 208], the inhibition at 0.5 µM was 95% and the 50% effective concentration (EC50) lay within 0.1 to 100 nM.

Consider `Cc1cn2nc([C@@H]3CCCCN3C(=O)c3ccccc3-c3cccnc3)cc2nc1N1CC[C@H](N)C1` [Compound 409], for which the inhibition at 0.5 µM was 99% and the EC50 lay within 0.1 to 100 nM.

On to `Cc1[nH]c2cc([C@@H]3C[C@@H](C)CCN3C(=O)c3cc(F)ccc3NS(C)(=O)=O)nn2c(=O)c1C` [Compound 22], for which the inhibition at 0.5 µM is 95%, the inhibition at 1 µM is 99% and the EC50 was 0.1 to 100 nM.

As for `Cc1cn2nc([C@@H]3CCCCN3C(=O)c3cc(Cl)ccc3NS(C)(=O)=O)cc2nc1N1CC(N)C(C#N)C1` (some centres unmarked) [Compound 186], the inhibition at 0.5 µM is 100% and the EC50 fell in the range of 0.1 to 100 nM.

For the molecule `CS(=O)(=O)Nc1ccc(Cl)cc1C(=O)N1CCCC[C@H]1c1cc2nc(C3CC3)cc(N3CCOCC3)n2n1` [Compound 63], the inhibition at 0.5 µM is 98% and the 50% effective concentration (EC50) was in the range of 0.1 to 100 nM.

Take `Cc1cn2nc([C@@H]3CCCCN3C(=O)c3cc(Cl)ccc3NS(C)(=O)=O)cc2nc1N1CCC(N)CC1` [Compound 216]: the inhibition at 0.5 µM was 100% and the EC50 fell in the range of 0.1 to 100 nM.

In the case of `CS(=O)(=O)Nc1ccc(Cl)cc1C(=O)N1CCCC[C@H]1c1cc2nc(NCCO)cc(N3CCOCC3)n2n1` [Compound 247], the inhibition at 0.5 µM was 94% and the EC50 was in the range of 0.1 to 100 nM.

For `Cc1cn2nc([C@@H]3CCCCN3C(=O)c3ccccc3O)cc2nc1N1CC[C@H](N)C1` [Compound 274], the inhibition at 0.5 µM is 100% and the concentration for a half-maximal effect (EC50) was in the range of 0.1 to 100 nM.

With `CCn1nccc1C(=O)N1CCCC[C@H]1c1cc2nc(N3CC[C@H](N)C3)c(C)cn2n1` [Compound 278], the inhibition at 0.5 µM is 99% and the concentration for a half-maximal effect (EC50) was 0.1 to 100 nM.

As to `CC(=O)Nc1ccc(Cl)cc1C(=O)N1CCCC[C@H]1c1cc2nc(N3CC(O)C3)c(C)cn2n1` [Compound 224], the inhibition at 0.5 µM was 100% and the half-maximal effective concentration (EC50) is 0.1 to 100 nM.

Regarding `Cc1cn2nc([C@@H]3CCCCN3C(=O)c3ccc4cccnc4c3)cc2nc1N1CC[C@H](N)C1` [Compound 343], the inhibition at 0.5 µM is 60% and the EC50 was in the range of 101 to 1000 nM.

For `Cc1cn2nc([C@@H]3CCCCN3C(=O)c3ccccc3F)cc2nc1N1CC[C@H](N)C1` [Compound 277], the inhibition at 0.5 µM was 98% and the EC50 was 0.1 to 100 nM.

Turning to `CS(=O)(=O)Nc1ccc(Cl)cc1C(=O)N1CCCCCC1c1cc2nc(N3CC(N)C3)cc(N3CCOCC3)n2n1` (centres unmarked) [Compound 178], the inhibition at 0.5 µM was 100% and the EC50 is 0.1 to 100 nM.

`Cc1cc(N2CCCC2)nc2cc([C@@H]3CCCCN3C(=O)c3cc(Cl)ccc3NS(C)(=O)=O)nn12` [Compound 46]: the inhibition at 0.5 µM was 100% and the EC50 is 0.1 to 100 nM.

In the case of `Cc1cc(C(=O)N2CCCC[C@H]2c2cc3nc(N4CC[C@H](N)C4)c(C)cn3n2)c(C(F)(F)F)o1` [Compound 399], the inhibition at 0.5 µM is 100% and the EC50 was in the range of 0.1 to 100 nM.

With `Cc1cn2nc([C@@H]3CCCCN3C(=O)c3cccc(Cl)c3C)cc2nc1N1CC[C@H](N)C1` [Compound 331], the inhibition at 0.5 µM is 99% and the EC50 is 0.1 to 100 nM.

Regarding `Cc1cn2nc([C@@H]3CCCCN3C(=O)c3ccc4c(c3)nnn4C)cc2nc1N1CC[C@H](N)C1` [Compound 359], the inhibition at 0.5 µM was 100% and the EC50 is 0.1 to 100 nM.

As to `Cc1ccc(NS(C)(=O)=O)c(C(=O)N2Cc3ccccc3C[C@H]2c2cc3nc(C)c(C)c(N(C)C)n3n2)c1` [Compound 34], the inhibition at 0.5 µM was 91% and the 50% effective concentration (EC50) lay within 0.1 to 100 nM.

Take `Cc1cn2nc([C@@H]3CCCCN3C(=O)c3cccc4ccccc34)cc2nc1N1CC[C@H](N)C1` [Compound 338]: the inhibition at 0.5 µM is 72% and the EC50 fell in the range of 101 to 1000 nM.
